According to patent US11154572B2, “Methods of treatment with natural killer cells matched for killer immunoglobulin receptor type” (Board of Regents, The University of Texas System, priority 2015, dated 2021):

Tests used:
[1] = test system: primary CD19+ tumor cells; assay: Cytotoxicity (percent lysis) against tumor cells; type: cell-based, human; conditions: combination with CAR-transduced NK cells
Excerpt: FIGS. 1A-1I: (A) CB NK cells were stably transduced with SFG.iCASP9.2A.CAR.CD19-28z.2A.[…]. Cell analysis for CD56 and CAR are shown from Day 10 to Day 44. (B) Histograms show NK receptor expression on ex vivo-expanded cord blood versus peripheral blood NK cells. NK receptors include KIR2DL2/DL3, KIR2DL1, NGK2A, NKP30, NKP44, and NKP46. (C) aAPC-expanded NK cells maintain an Eomes^hi and T-bet^hi phenotype. […] (G) NK cells co-expressing CAR.19-IL-15-iCasp9 form functional synapses with CD19^+ CLL cells. Cells are stained for Perforin, Phalloidin, and CAR and imaged by confocal microscopy. (H) CAR.19-IL-15-iCasp9 transduced CB-NK cells are more efficient at killing primary CD19^+ tumor cells. Percent lysis of tumor cells is shown at varying effector:target ratios of K562, Raji, and CLL cells. (I) The activity of cord blood-derived NK cells against primary CLL cells is enhanced with lenalidomide (Revlimid).
The immunological synapse in immune cells is a discrete structural entity that forms after the ligation of a specific activation receptor and enables the cell to progress through a series of biological steps that allow it to destroy cancer cells through the elaboration of the contents of NK cells lytic granules. To determine if the CAR-transduced NK cells formed immunological synapses with CD19^+ targets, the cells were stained with antiperforin, Phalloidin-F-actin and anti-CD19-CAR.

iC9/CAR19/IL15+ NK cells = assay: Inducible caspase-9 suicide gene test, annexin-V-7AAD staining; type: cell-based, human; conditions: after 4 hours
Excerpt: (C) CAR-NK cells home to sites of disease, such as the spleen, bone marrow, and liver, in a Raji engrafted mouse at Day 16 post-infusion. (D) CAR-NK cells persist in Raji engrafted mice at Day 70 post infusion. (E) CAR-transduced CB-NK cells show an anti-tumor effect in vivo in Raji-FFLuc mice from Day 0 to Day 14. (F) CAR-transduced CB-NK cells show an anti-tumor effect in vivo in Raji-FFLuc mice from Day 21 to Day 35. […] (H) Survival curve with different NK cell treatments. (I) CAR.19.IL15-iCasp9 transduced CB-NK cells are eliminated after activation of the suicide gene by exposure to the small molecule AP1903 after 4 hours.
Because of concerns over autonomous, uncontrolled NK-cell growth due to autocrine production of IL-15, a suicide gene based on the inducible caspase-9 (IC9) gene was incorporated into the construct. To test the inducible caspase-9 suicide gene that was incorporated into the retroviral vector, 10 nM of CID AP20187 was added to cultures of iC9/CAR19/IL15+ NK cells. The AP20187 induced apoptosis/necrosis of transgenic cells within 4 hours as assessed by annexin-V-7AAD staining (FIG. 2I).

For `Nc1cccc2c1CN(C1CCC(=O)NC1=O)C2=O` (centres unmarked) [lenalidomide], the “activity of CAR-transduced NK cells against patient-derived CLL cells on addition of lenalidomide” value [1] was “enhanced synergistically”.

`CC[C@H](C(=O)N1CCCC[C@H]1C(=O)O[C@H](CCc1ccc(OC)c(OC)c1)c1cccc(OCC(=O)NCCNC(=O)COc2cccc([C@@H](CCc3ccc(OC)c(OC)c3)OC(=O)[C@@H]3CCCCN3C(=O)[C@@H](CC)c3cc(OC)c(OC)c(OC)c3)c2)c1)c1cc(OC)c(OC)c(OC)c1` [AP1903] was tested, and the “elimination of CAR.19.IL15-iCasp9 transduced CB-NK cells after activation of the suicide gene” value (iC9/CAR19/IL15+ NK cells) was “eliminated”.
